Where “and” joins values, the source holds several entries; their conditions need not be identical. Equal entries are not always repeated. Structures can show the parent of a compound that is named as a salt.
Assays:
Aurora A = molecular target: T1, Aurora A (Homo sapiens, UniProt O14965); test: Aurora A inhibitory action (Kemptide substrate, [γ-33P]ATP, 20 μM ATP); type: biochemical; settings: 30° C., 20 minutes
T1 construct: histidine tag (N); made in house; host or cells: Escherichia coli BL21-CodonPlus (DE3)-RIL
T1 sequence (O14965 1-403): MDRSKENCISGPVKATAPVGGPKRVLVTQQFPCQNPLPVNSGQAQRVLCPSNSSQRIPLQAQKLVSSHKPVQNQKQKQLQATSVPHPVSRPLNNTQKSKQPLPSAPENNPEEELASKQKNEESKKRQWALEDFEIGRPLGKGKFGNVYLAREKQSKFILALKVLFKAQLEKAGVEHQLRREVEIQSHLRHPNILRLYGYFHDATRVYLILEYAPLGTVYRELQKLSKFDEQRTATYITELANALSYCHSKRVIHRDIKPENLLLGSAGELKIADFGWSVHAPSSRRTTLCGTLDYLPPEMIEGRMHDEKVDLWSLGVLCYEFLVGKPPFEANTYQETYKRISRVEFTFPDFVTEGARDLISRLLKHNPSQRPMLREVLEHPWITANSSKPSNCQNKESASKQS
Description: (§1) cDNA of Aurora A having histidine tag fused at the amino terminal was integrated into an expression vector, which was then highly expressed in Escherichia coli BL21-CodonPlus (DE3)-RIL cells. The Escherichia coli cells were recovered and solubilized, and then the histidine-tagged Aurora A protein was adsorbed onto a nickel chelate column and eluted from the column with imidazole. The active fraction was desalted with a desalting column to give a pure enzyme.
For measurement of the activity of Aurora A, the substrate used was Kemptide (Leu-Arg-Arg-Ala-Ser-Leu-Gly) (SEQ.ID.NO.: 1), a synthetic peptide purchased from Sigma-Aldrich, Inc. [Certificate of analysis (Upstate, Inc.)].
Reaction was conducted by a partial modification of a method by Upstate, Inc. [Kinase Profiler™ Assay Protocols]. The amount of the reaction liquid was 21.1 μL, and the composition of the reaction buffer (R2 buffer) was 50 mM Tris-hydrochloride buffer (pH 7.4)/15 mM magnesium acetate/0.2 mM ethylenediamine-N,N,N′,N′-tetraacetate (EDTA). To this, purified Aurora A, 100 μM of a substrate peptide, 20 μM of unlabeled adenosine triphosphate (ATP) and 0.5 μCi of [γ-^33P] labeled ATP (2,500 Ci/mmole or more) were added, and the mixture was reacted at 30° C. for 20 minutes. Then, 10 μL of 350 mM phosphate buffer was added to the reaction system to stop the reaction. The substrate peptide was adsorbed on a P81 paper filter 96-well plate and then washed with 130 mM phosphate buffer for several times. The radiation activity of the peptide was measured with a liquid scintillation counter. The [γ-^33P] labeled ATP was purchased from Amersham Biosciences Co., Ltd.
(§2) The compound to be tested was added to the reaction system such that a dilution series of the compound in dimethylsulfoxide was first prepared, and 1.1 μL of this solution was added. A control was provided by adding 1.1 μL of DMSO to the reaction system.

Aurora B = molecular target: T2, Aurora B (Homo sapiens, UniProt Q96GD4); test: Aurora B inhibitory action (Kemptide substrate, [γ-33P]ATP, 100 μM ATP); type: biochemical; settings: 30° C., 20 minutes
T2 construct: histidine tag (N); made in house; host or cells: Escherichia coli BL21-CodonPlus (DE3)-RIL
Description: as §1, with “of Aurora B having histidine” for “of Aurora A having histidine”
For measurement of the activity of Aurora B, the substrate used was Kemptide (Leu-Arg-Arg-Ala-Ser-Leu-Gly) (SEQ.ID.NO.: 1), a synthetic peptide purchased from Sigma-Aldrich, Inc. [Certificate of analysis (Upstate, Inc.)].
Reaction was conducted by a partial modification of the method of activity measurement for Aurora A. The amount of the reaction liquid was 21.1 μL, and the composition of the reaction buffer (R2 buffer) was 50 mM Tris-hydrochloride buffer (pH 7.4)/15 mM magnesium acetate/0.2 mM ethylenediamine-N,N,N′,N′-tetraacetate (EDTA). To this, purified Aurora B, 100 μM of a substrate peptide, 100 μM of unlabeled adenosine triphosphate (ATP) and 1 μCi of [γ-^33P] labeled ATP (2,500 Ci/mmole or more) were added, and the mixture was reacted at 30° C. for 20 minutes. Then, 10 μL of 350 mM phosphate buffer was added to the reaction system to stop the reaction. The substrate peptide was adsorbed on a P81 paper filter 96-well plate and then washed with 130 mM phosphate buffer for several times. The radiation activity of the peptide was measured with a liquid scintillation counter. The [γ-^33P] labeled ATP was purchased from Amersham Biosciences Co., Ltd.
as §2

[1] = tested on: Human cervical cancer cells (HeLa S3); test: Cell growth inhibitory effect, WST-8 method; type: cell-based; settings: 72 h, HeLa S3, three days incubation
Procedure: Fetal calf serum (FCS) was purchased from Moregate Biotech, and DMEM medium was purchased from Invitrogen Corp. WST-8 was purchased from Kishida Chemical Co., Ltd.
(§3) Human cervical cancer cells (HeLa S3) were obtained from the American Type Culture Collection (ATCC).
Cells were suspended in a DMEM medium containing 10% FCS, and the cell suspension was dispensed to a 96-well plastic plate at a rate of 750 cells/100 microliters per well. The plate was incubated overnight in 5% CO2-95% air at 37° C. A drug was subjected to graded dilution in dimethylsulfoxide and further diluted with a DMEM medium containing 10% FCS. Then, the dilution was dispensed to the plate on which cells had been disseminated, at a rate of 100 microliters per well. The plate was incubated for further three days in 5% CO2-95% air at 37° C. Cell growth after incubation was measured by the WST-8 method (H. Tominaga, et al., Anal. Commun., 36, 47-50 (1999)). Here, the WST-8 method refers to a method in which 20 microliters of a WST-8 reagent solution is added to each well, incubation is conducted at 37° C. for 45 minutes, the plate is stirred, and the amount of formazan produced is measured by a calorimetric method to determine the inhibitory rate of the drug. The concentration for 50% growth inhibition (EC50, μM) of the compound was determined.

[2] = tested on: Human cervical cancer cells (HeLa S3); test: Effect by combined use with paclitaxel in cells, WST-8 method; type: cell-based; settings: three days, DMSO = 0%; for inhibition at 1 µM: HeLa S3, compound 1.0 μM alone
Procedure: Fetal calf serum (FCS) was purchased from Moregate Biotech, DMEM medium from Invitrogen Corp., paclitaxel (tradename: Taxol) from Sigma-Aldrich, Inc., and WST-8 from Kishida Chemical Co., Ltd.
as §3
Cells were suspended in a DMEM medium containing 10% FCS, and the cell suspension was dispensed to two 96-well plastic plates at a rate of 750 cells/100 microliters per well. The plates were incubated overnight in 5% CO2-95% air at 37° C. A drug was subjected to graded dilution in dimethylsulfoxide and further diluted with […] a DMEM medium containing 10% FCS and also containing 2 nM paclitaxel. Then, the dilutions were each dispensed to one of the plates on which cells had been disseminated, at a rate of 100 microliters per well. The final concentration of paclitaxel at this stage was 1 nM. Also, the concentrations in the case of sole administration of the compound according to the invention were 0.03, 0.1, 0.3, 1 and 3 μM. The plates were incubated for further three days in 5% CO2-95% air at 37° C. Cell growth after incubation was measured by the WST-8 method (H. Tominaga, et al., Anal. Commun., 36, 47-50 (1999)). Here, the WST-8 method refers to a method in which 20 microliters of a WST-8 reagent solution is added to each well, incubation is conducted at 37° C. for 45 minutes, the plate is stirred, and the amount of formazan produced is measured by a colorimetric method to determine the inhibitory rate of the drug. The growth inhibitory effects of paclitaxel and of the compound according to the invention were determined, with the value obtained in sole treatment of DMSO being defined as 0%.

[3] = HeLa S3, compound 1.0 μM + paclitaxel 1 nM
[4] = Homo sapiens, HeLa S3, 72 h, read-out: Cell growth inhibitory effect by sole administration of the compound of Example (%)

T2 sequence (Q96GD4 whole entry): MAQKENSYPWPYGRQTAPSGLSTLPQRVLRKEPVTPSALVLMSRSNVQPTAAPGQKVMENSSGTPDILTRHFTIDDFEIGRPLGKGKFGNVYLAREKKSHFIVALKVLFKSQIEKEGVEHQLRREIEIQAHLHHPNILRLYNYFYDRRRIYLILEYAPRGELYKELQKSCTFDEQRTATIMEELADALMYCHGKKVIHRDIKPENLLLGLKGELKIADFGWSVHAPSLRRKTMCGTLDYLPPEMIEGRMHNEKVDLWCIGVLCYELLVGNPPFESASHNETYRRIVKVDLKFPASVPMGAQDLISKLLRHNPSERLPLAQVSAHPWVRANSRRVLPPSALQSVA

Row | SMILES | IC50 (Aurora A) [nM] | IC50 (Aurora B) [nM] | IC50 [1] [nM] | Cell growth inhibitory effect by combined administration of paclitaxel and the compound of Example (%) [2, 3] [%] | inhibition at 1 µM [2, 4] [%] | Cell growth inhibitory effect by combined administration of paclitaxel and the compound of Example (%) ([2]; HeLa S3, compound 0.1 μM + paclitaxel 1 nM) | inhibition at 0.1 µM ([2]; Homo sapiens, HeLa S3, 72 h, HeLa S3, compound 0.1 μM alone, read-out: Cell growth inhibitory effect by sole administration of the compound of Example (%)) [%] | Cell growth inhibitory effect by sole administration of paclitaxel (1 nM) (%) ([2]; HeLa S3, paclitaxel 1 nM alone) | inhibition at 0.001 µM ([2]; Homo sapiens, HeLa S3, 72 h, HeLa S3, paclitaxel 1 nM alone, read-out: Cell growth inhibitory effect by sole administration of paclitaxel (1 nM) (%)) [%]
1 | Cc1cc(Nc2cc[nH]n2)nc(CN2C[C@@H]3C[C@H]2CN3C(=O)c2cccc(Cl)c2F)n1 [Example 1, 2-(((1S,4S)-5-(3-chloro-2-fluorobenzoyl)-2,5-diazabicyclo[2.2.1]hept-2-yl)methyl)-6-methyl-N-1H-pyrazol-3-ylpyrimidine-4-amine] | 3 | 640 | 5080 | 83.0 | 14.3 | – | – | – | –
2 | O=C(c1cccc(C(F)(F)F)c1F)N1C[C@@H]2C[C@H]1CN2Cc1nccc(Nc2cc[nH]n2)n1 [Example 6, 2-(((1S,4S)-5-(2-fluoro-3-(trifluoromethyl)benzoyl)-2,5-diazabicyclo[2.2.1]hept-2-yl)methyl)-N-1H-pyrazol-3-ylpyrimidine-4-amine] | 6.1 | 2800 | 9750 | 71.7 | 1.7 | – | – | – | –
3 | Cc1cc(Nc2cc(C)[nH]n2)nc(CN2C[C@@H]3C[C@H]2CN3C(=O)c2cccc(Cl)c2F)n1 [Example 7] | 5.7 | 300 | – | – | – | – | – | – | –
4 | Cc1cc(Nc2ccnc(CN3C[C@@H]4C[C@H]3CN4C(=O)c3cccc(Cl)c3F)n2)n[nH]1 [Example 9, 2-(((1S,4S)-5-(3-chloro-2-fluorobenzoyl)-2,5-diazabicyclo[2.2.1]hept-2-yl)methyl)-N-(5-methyl-1H-pyrazol-3-yl)pyrimidine-4-amine] | 9.8 | 690 | – | 79.5 | 12.4 | – | – | – | –
5 | O=C(c1cccc(Cl)c1Cl)N1C[C@@H]2C[C@H]1CN2Cc1cncc(Nc2cc[nH]n2)n1 [Example 10, 6-(((1S,4S)-5-(2,3-dichlorobenzoyl)-2,5-diazabicyclo[2.2.1]hept-2-yl)methyl)-N-1H-pyrazol-3-ylpyrazine-2-amine trifluoroacetate] | 7.1 | 2100 | 4600 | 84.8 | 8.9 | – | – | – | –
6 | O=C(c1cccc(C(F)(F)F)c1Cl)N1C[C@H]2C[C@@H]1CN2Cc1cncc(Nc2cc[nH]n2)n1 [Example 12] | 4.8 | 2300 | – | – | – | – | – | – | –
7 | CN(C)C(=O)c1cc(CN2C[C@@H]3C[C@H]2CN3C(=O)c2cccc(Cl)c2F)nc(Nc2nccs2)c1 [Example 21, 2-(((1S,4S)-5-(3-chloro-2-fluorobenzoyl)-2,5-diazabicyclo[2.2.1]hept-2-yl)methyl)-N,N-dimethyl-6-(1,3-thiazol-2-ylamino)isonicotinamide] | 1.3 | 260 | 670 | – | – | 81.3 | 14.9 | – | –
8 | CN(C)C(=O)c1cc(CN2C[C@@H]3C[C@H]2CN3C(=O)c2cccc(C(F)(F)F)c2F)nc(Nc2nccs2)c1 [Example 22, 2-(((1S,4S)-5-(2-fluoro-3-(trifluoromethyl)benzoyl)-2,5-diazabicyclo[2.2.1]hept-2-yl)methyl)-N,N-dimethyl-6-(1,3-thiazol-2-ylamino)isonicotinamide trifluoroacetate] | 1.4 | 590 | – | – | – | – | – | – | –
9 | CN(C)C(=O)c1cc(CN2C[C@@H]3C[C@H]2CN3C(=O)c2cccc(Cl)c2C#N)nc(Nc2nccs2)c1 [Example 23, 2-(((1S,4S)-5-(3-chloro-2-cyanobenzoyl)-2,5-diazabicyclo[2.2.1]hept-2-yl)methyl)-N,N-dimethyl-6-(1,3-thiazol-2-ylamino)isonicotinamide trifluoroacetate] | 1.4 | 330 | – | – | – | – | – | – | –
10 | CN(C)C(=O)c1cc(CN2C[C@@H]3C[C@H]2CN3C(=O)c2cccc(C(F)(F)F)c2C#N)nc(Nc2nccs2)c1 [Example 24, 2-(((1S,4S)-5-(2-cyano-3-(trifluoromethyl)benzoyl)-2,5-diazabicyclo[2.2.1]hept-2-yl)methyl)-N,N-dimethyl-6-(1,3-thiazol-2-ylamino)isonicotinamide] | 1.1 | 190 | – | – | – | – | – | – | –
11 | CC(=O)O[C@H]1C(=O)[C@@]2(C)[C@H]([C@H](OC(=O)c3ccccc3)[C@]3(O)C[C@H](OC(=O)[C@H](O)[C@@H](NC(=O)c4ccccc4)c4ccccc4)C(C)=C1C3(C)C)[C@]1(OC(C)=O)CO[C@@H]1C[C@@H]2O [paclitaxel, reference compound] | – | – | – | – | – | – | – | 47.1% and 51.4% | 47.2
